PMC3559867, “Metabolites of Ginger Component [6]-Shogaol Remain Bioactive in Cancer Cells and Have Low Toxicity in Normal Cells: Chemical Synthesis and Biological Evaluation” (PLoS ONE, 2013)

Columns and labels:
[1] = test system: HCT-116 human colon cancer cells; experiment: MTT growth inhibition, HCT-116; format: cell-based; conditions: 24 h treatment, 0 to 80 µM
Experimental: (§1) Cell growth inhibition was determined by a MTT colorimetric assay. Human colon cancer cells HCT-116, human lung cancer cells H-1299, human colon fibroblast cells CCD-18Co, and human lung fibroblast cells IMR-90 were plated in 96-well microtiter plates with 3000 cells/well and allowed to attach for 24 h at 37°C. […] After the cells were cultured for 24 h, the medium was aspirated and cells were treated with 200 µL fresh medium containing 2.41 mmol/L MTT. […] The reading reflected the number of viable cells and was expressed as a percentage of viable cells in the control. Both HCT-116 and H-1299 cells were cultured in McCoy’s 5A medium. CCD-18Co and IMR-90 cells were cultured in Eagle’s modified essential medium (EMEM). All of the above media were supplemented with 10% fetal bovine serum, 1% penicillin/streptomycin, and 1% glutamine, and the cells were kept in a 37°C incubator with 95% humidity and 5% CO2.

[2] = test system: H-1299 human lung cancer cells; experiment: MTT growth inhibition, H-1299; format: cell-based; conditions: 24 h treatment, 0 to 80 µM
Experimental: as §1

[3] = test system: CCD-18Co human normal fibroblast colon cells; experiment: MTT cytotoxicity, normal colon cells CCD-18Co; format: cell-based; conditions: 24 h treatment, toxicity to normal cells
Experimental: as §1

[4] = test system: IMR-90 human normal lung cells; experiment: MTT cytotoxicity, normal lung cells IMR-90; format: cell-based; conditions: 24 h treatment, toxicity to normal cells
Experimental: as §1

HCT-116 cells = experiment: TUNEL apoptosis assay, HCT-116; format: cell-based, human; conditions: 20 or 40 µM, versus DMSO
Experimental: (§2) HCT-116 and H1299 cells were seeded in 6-well plates at 1.10^5 cells/well and incubated at 37°C in 5% CO2 incubator. After 24 hours, fresh media supplemented with DMSO (control), [6]-shogaol, M2, M6, or M13 metabolites (20 µM or 40 µM) were added to the wells. After 6 or 24 hours incubation at 37°C in 5% CO2 incubator, cells were washed and pre-treated for 15 min at room temperature with a solution of 20 µg/ml proteinase K. Cells were then washed twice with phosphate buffer saline pH 7.4 (PBS) and fixed for 10 min at room temperature using 10% neutral formaldehyde solution. After 2 washes in ddH2O, cells were resuspended in 100 µL ddH2O and applied on silanized microscope slides. Slides were incubated overnight at 37°C, and washed twice with PBS. TUNEL assay was then carried out according to the manufacturer’s protocol. Cells were observed under 400X power using a Zeiss microscope A1 (Thornwood, NY). 10 fields per slide were evaluated, and TUNEL+ cells (with brown coloration in the nucleus) were expressed as a percentage of the total number of cells contained in a field.

H-1299 cells = experiment: TUNEL apoptosis assay, H-1299; format: cell-based, human; conditions: H-1299, 24 hours of incubation, 20 or 40 µM, versus DMSO; M2 not significant at 20 µM
Experimental: as §2

[5] = HCT-116, 24 hours of incubation

IC50 [1] | IC50 ([2]; Homo sapiens, NCI-H1299, 24 h) | IC50 [2] | Structure (SMILES) | IC50 [3] | IC50 [4] | induction of apoptosis (TUNEL positive cells) (HCT-116 cells; HCT-116, 6 hours of incubation) | induction of apoptosis (TUNEL positive cells) (HCT-116 cells; [5]) | induction of apoptosis (TUNEL positive cells) (H-1299 cells)
> 100 µM | > 100 µM | – | CCCCCC(CC(O)CCc1ccc(O)c(OC)c1)SCC(N)C(=O)O (stereo not drawn) [M1, 5-cysteinyl-M6] | > 100 µM | > 100 µM | – | – | –
24.4 µM | 25.8 µM | 24.4 µM | CCCCCC(CC(=O)CCc1ccc(O)c(OC)c1)SCC(N)C(=O)O (stereo not drawn) [M2, 5-cysteinyl-[6]-shogaol] | 99.2 µM | 98.3 µM | significantly higher levels of apoptosis | Significant apoptosis | Significant apoptosis
> 100 µM | > 100 µM | – | CCCCCC(CC(O)CCc1ccc(O)c(OC)c1)SCC(NC(C)=O)C(=O)O (stereo not drawn) [M4, 5-N-acetylcysteinyl-M6] | > 100 µM | > 100 µM | – | – | –
54.3 µM | 72.6 µM | 54.3 µM | CCCCCC(CC(=O)CCc1ccc(O)c(OC)c1)SC[C@H](NC(C)=O)C(=O)O (stereo partly drawn) [M5, 5-N-acetylcysteinyl-[6]-shogaol] | > 100 µM | > 100 µM | – | – | –
68.8 µM | 61.3 µM | 68.8 µM | CCCCCC=CC(O)CCc1ccc(O)c(OC)c1 (stereo not drawn) [M6, 1-(4'-hydroxy-3'-methoxyphenyl)-4-decen-3-ol] | > 100 µM | > 100 µM | – | did not display any apoptotic effect | did not display any apoptotic effect
> 100 µM | > 100 µM | – | CCCCCC(CC(=O)CCc1ccc(O)c(OC)c1)OC (stereo not drawn) [M7, 5-methoxy-1-(4'-hydroxy-3'-methoxyphenyl)-decan-3-one] | > 100 µM | > 100 µM | – | – | –
58.8 µM | > 100 µM | – | CCCCCCCC(=O)CCc1ccc(O)c(O)c1 [M8, 1-(3',4'-dihydroxyphenyl)-decan-3-one] | > 100 µM | > 100 µM | – | – | –
82.2 µM | 82.5 µM | – | CCCCCCCC(O)CCc1ccc(O)c(OC)c1 (stereo not drawn) [M9, 1-(4'-hydroxy-3'-methoxyphenyl)-decan-3-ol] | > 100 µM | > 100 µM | – | – | –
78.2 µM | 60.6 µM | – | CCCCCC(CC(=O)CCc1ccc(O)c(OC)c1)SC (stereo not drawn) [M10, 5-methylthio-1-(4'-hydroxy-3'-methoxyphenyl)-decan-3-one] | > 100 µM | > 100 µM | – | – | –
84 µM | 66.5 µM | – | CCCCCCCC(=O)CCc1ccc(O)c(OC)c1 [M11, 1-(4'-hydroxy-3'-methoxyphenyl)-decan-3-one] | > 100 µM | > 100 µM | – | – | –
> 100 µM | 69.9 µM | – | CCCCCC(CC(O)CCc1ccc(O)c(OC)c1)SC (stereo not drawn) [M12, 5-methylthio-1-(4'-Hydroxy-3'-methoxyphenyl)-decan-3-ol] | > 100 µM | > 100 µM | – | – | –
45.5 µM | 47.8 µM | – | CCCCCC(CC(=O)CCc1ccc(O)c(OC)c1)SCC(NC(=O)CCC(N)C(=O)O)C(=O)NCC(=O)O (stereo not drawn) [M13, 5-glutathiol-[6]-shogaol] | 75.5 µM | 57.5 µM | significantly higher levels of apoptosis | Significant apoptosis | Significant apoptosis
71.2 µM | 74.4 µM | – | CCCCC[C@@H](CC(=O)CCc1ccc(O)c(OC)c1)SC[C@H](NC(=O)CC[C@H](N)C(=O)O)C(=O)NCC(=O)O [M13-1] | – | – | higher level of apoptosis | – | –
54.9 µM | 63.8 µM | – | CCCCC[C@H](CC(=O)CCc1ccc(O)c(OC)c1)SC[C@H](NC(=O)CC[C@H](N)C(=O)O)C(=O)NCC(=O)O [M13-2] | – | – | higher level of apoptosis | – | –
18.2 µM | 17.9 µM | – | CCCCC/C=C/C(=O)CCc1ccc(O)c(OC)c1 [[6]-shogaol] | 43.9 µM | 36.6 µM | significantly higher levels of apoptosis | significantly superior to that of both M2 and M13 | significantly superior to that of both M2 and M13
